Laboratory results as given in US4071411A, “Antitumor antibiotics aclacinomycins A and B [RD-9187A]” (priority 1974, dated 1978).
Converted amounts (≈) assume the structure as drawn. “Also recorded” adds a separate entry of the source. Where two headings read alike, the source gives them in different places.

What was measured:
[1] = system: Protein synthesis (L1210 cells); test: cells; type: cell-based, mice; conditions: Mus musculus, L1210, 1 h; 14C-precursor incorporation, 37° C., 60 min.; read-out: ID50, Protein synthesis
[2] = system: lymphoma 6C3HED; test: lymphoma 6C3HED in mice (summary in words); type: in vivo
[3] = system: various animal tumors; test: antitumor activity in animal tumors (summary in words); type: in vivo; conditions: experimental animal tumors
[4] = system: cultured mammalian tumor cells; test: growth of tumor cells in culture (summary in words); type: cell-based
[5] = solubility; conditions: for solubility in low polar solvents: ether, hexane, cyclohexane, petroleum ether as listed; for solubility in organic solvents: methanol, ethanol, chloroform, ethyl acetate, acetone etc.
[6] = cardiotoxicity (general statement); conditions: in vivo
[7] = system: lymphoma 6C3HED/OG, solid type; test: growth of solid lymphoma 6C3HED/OG in CH3/He mice; type: in vivo; conditions: for Inhibition / 21 day survivors / Tumor weight/Body weight / Tumor weight: 10 days; for 21 day survivors: control 7/9; for Tumor weight/Body weight: control 29.6; for Tumor weight: control 7045
[8] = system: lymphoma 6C3HED/OG, ascitic type; test: ascitic lymphoma 6C3HED/OG in CH3/He mice; type: in vivo; conditions: for T/C (Survival ratio: Tested/control) / 62 day survivors / MST (Mean survival time): 10 days; for 62 day survivors: control 0/3; for MST (Mean survival time): control 20.5
[9] = system: L1210 leukemia cells; test: survival of mice with L1210 leukemia, treatment days 1, 5 and 9; type: in vivo; conditions: for 30 day survivors / Mean survival time: days 1, 5 and 9; for 30 day survivors: control 0/10; for Mean survival time: control 10.4
Text: Mice are inoculated intraperitoneally with a suspension of L1210 leukemia cells and treated with solutions of different concentrations of aclacinomycin A and 1, 5 and 9 days following the tumor implantation.

[10] = system: ascitic hepatoma AH44; test: survival of Donryu rats grafted with ascitic hepatoma AH44; type: in vivo; conditions: 2 mg./kg./day i.p., 10 consecutive days; control average survival 14.5 days
[11] = system: Ehrlich carcinoma; test: growth of Ehrlich carcinoma in mice; type: in vivo; conditions: ascites and solid forms
[12] = system: Sarcoma 180; test: growth of Sarcoma 180 in mice; type: in vivo
[13] = system: hepatomas; test: hepatomas in rats (summary in words); type: in vivo
[14] = in vivo

For `CCC1(O)CC(OC2CC(N(C)C)C(OC3CC4OC5CC(=O)C(C)OC5OC4C(C)O3)C(C)O2)c2c(cc3c(c2O)C(=O)c2c(O)cccc2C3=O)C1C(=O)OC` (stereo not shown) [Aclacinomycin B], the IC50 [1] was 12 µg/mL (≈ 14.8 µM), the “life prolongation, mice inoculated with lymphoma 6C3HED” value [2] was “markedly prolong the lives” and the “antitumor activity (in words)” value [3] was “marked inhibitory effects; also recorded: potent antitumor activity”. The “inhibition of growth of tumor cells in culture (in words)” value [4] was “remarkable inhibitory effect”, the “solubility in acidic water” value ([5]; acidic water) was “soluble” and the “solubility in low polar solvents” value [5] was “insoluble”. The “solubility in organic solvents” value [5] was “soluble”, the solubility in water [5] was “slightly soluble” and the cardiotoxicity [6] was “low cardiotoxicity”.

With `CCC1(O)CC(OC2CC(N(C)C)C(OC3CC(O)C(OC4CCC(=O)C(C)O4)C(C)O3)C(C)O2)c2c(cc3c(c2O)C(=O)c2c(O)cccc2C3=O)C1C(=O)OC` (stereo not shown) [Aclacinomycin A] the Inhibition ([7]; 0.5 mg./kg./day i.p.) was 47.6%, the 21 day survivors ([7]; 0.5 mg./kg./day i.p.) was 3/3 and the “Tumor weight/Body weight” value ([7]; 0.5 mg./kg./day i.p.) was 12.4%. For the same compound, the Tumor weight ([7]; 0.5 mg./kg./day i.p.) was 3695 mg, the Inhibition ([7]; 1 mg./kg./day i.p.) was 64.5% and the 21 day survivors ([7]; 1 mg./kg./day i.p.) was 3/3. For the same compound, the “Tumor weight/Body weight” value ([7]; 1 mg./kg./day i.p.) was 9.5%, the Tumor weight ([7]; 1 mg./kg./day i.p.) was 2501 mg and the Inhibition ([7]; 2 mg./kg./day i.p.) was 34.2%. For the same compound, the 21 day survivors ([7]; 2 mg./kg./day i.p.) was 3/3, the “Tumor weight/Body weight” value ([7]; 2 mg./kg./day i.p.) was 15.1% and the Tumor weight ([7]; 2 mg./kg./day i.p.) was 4633 mg. For the same compound, the Inhibition ([7]; 4 mg./kg./day i.p.) was 28.7%, the 21 day survivors ([7]; 4 mg./kg./day i.p.) was 0/3 and the “Tumor weight/Body weight” value ([7]; 4 mg./kg./day i.p.) was 19.5%. For the same compound, the Tumor weight ([7]; 4 mg./kg./day i.p.) was 5023 mg, the “inhibition of growth of solid 6C3HED/OG tumor (in words)” value ([7]; i.p. daily for 10 days) was “marked inhibition of the growth” and the “T/C (Survival ratio: Tested/control)” value ([8]; 0.5 mg./kg./day i.p.) was 73%. The 62 day survivors ([8]; 0.5 mg./kg./day i.p.) was 0/3, the “MST (Mean survival time)” value ([8]; 0.5 mg./kg./day i.p.) was 15.0 days and the “T/C (Survival ratio: Tested/control)” value ([8]; 1 mg./kg./day i.p.) was 183%. The 62 day survivors ([8]; 1 mg./kg./day i.p.) was 1/3, the “MST (Mean survival time)” value ([8]; 1 mg./kg./day i.p.) was 37.5 days and the “T/C (Survival ratio: Tested/control)” value ([8]; 2 mg./kg./day i.p.) was 155%. For the same compound, the 62 day survivors ([8]; 2 mg./kg./day i.p.) was 0/3, the “MST (Mean survival time)” value ([8]; 2 mg./kg./day i.p.) was 31.8 days and the “T/C (Survival ratio: Tested/control)” value ([8]; 4 mg./kg./day i.p.) was 98%. For the same compound, the 62 day survivors ([8]; 4 mg./kg./day i.p.) was 0/3, the “MST (Mean survival time)” value ([8]; 4 mg./kg./day i.p.) was 20.1 days and the “inhibition of growth of ascitic 6C3HED/OG tumor (in words)” value ([8]; i.p. daily for 10 days) was “marked inhibition of the growth”. The 30 day survivors ([9]; 1.5 mg/kg/day) was 0/5, the “Mean survival time” value ([9]; 1.5 mg/kg/day) was 12.6 days and the 30 day survivors ([9]; 3 mg/kg/day) was 2/5. For the same compound, the “Mean survival time” value ([9]; 3 mg/kg/day) was 23.3 days, the 30 day survivors ([9]; 6 mg/kg/day) was 2/5 and the “Mean survival time” value ([9]; 6 mg/kg/day) was 21.7 days. For the same compound, the 30 day survivors ([9]; 12 mg/kg/day) was 0/5, the “Mean survival time” value ([9]; 12 mg/kg/day) was 16.1 days and the “mean survival time of the treated mice (in words)” value ([9]; 6 and 3 mg./kg./day) was “increased considerably”. For the same compound, the “survival 30 days after the experiment” value [10] was “all the treated rats were alive 30 days after the experiment”, the IC50 [1] was 6.3 µg/mL (≈ 7.76 µM) and the “inhibition of growth of Ehrlich carcinoma” value [11] was “effective in inhibiting the growth”. The “inhibition of growth of Sarcoma 180” value [12] was “effective in inhibiting the growth”, the “inhibition of growth of lymphoma 6C3HED” value [2] was “effective in inhibiting the growth” and the “life prolongation, mice inoculated with lymphoma 6C3HED” value [2] was “markedly prolong the lives”. For the same compound, the “inhibition of growth of hepatomas” value [13] was “effective in inhibiting the growth”, the “antitumor activity (in words)” value [3] was “marked inhibitory effects; also recorded: potent antitumor activity” and the “inhibition of growth of tumor cells in culture (in words)” value [4] was “remarkable inhibitory effect”. For the same compound, the cardiotoxicity [14] was “low cardiotoxicity”, the “solubility in low polar solvents” value [5] was “insoluble” and the “solubility in organic solvents” value [5] was “soluble”. For the same compound, the solubility in water [5] was “slightly soluble”.
